Assay results as given in patent US20200354411A1, “Chimeric Molecule for Targeting c-Myc in Cells” (priority 2017, published 2020).
“Also recorded” adds a separate entry of the source. Like-named read-outs stand apart in the source and are kept apart here.

Assays:
c-Myc = test: E-Box luciferase reporter, c-Myc transcriptional activity in A431 cells; format: cell-based; details: for EC50: A431 cells expressing luciferase upon E-Box promoter
Excerpt: (§1) All cell lines come from ATCC. Lentiviruses were generated according to the manufacturer's instructions (Invitrogen). WT A431 cells were transduced with Cignal Lenti Myc Reporter (Qiagen) expressing Luciferase upon E-Box promoter and CMV-Renilla Control CLS-RCL expressing Renilla upon CMV promoter. Single clone was selected after colony isolation and Luciferase/Renilla expression level tested. All cell lines (A431 and HepG2) were maintained in high-glucose Dulbecco's modified Eagle's medium supplemented with 10% foetal calf serum at 37° C. in a 10% CO2 incubator. All experiments were performed on cells passaged fewer than 10 times after thawing.
40,000 A431-Ebox-luc-CMV-Ren cells were seeded in a 96-well plate (Falcon) 48 hours. Luminescence is detected using the Promega Dual-Glo luciferase assay system, according to the manufacturer's protocol and read using Tecan Infinite M200 microplate reader using 100 ms integration time. […]

[1] = tested on: Renilla upon CMV promoter; test: CMV-Renilla control reporter in A431 cells; format: cell-based; details: 50 nM, 6 hours
Excerpt: as §1
40,000 A431-Ebox-luc-CMV-Ren cells were seeded in a 96-well plate (Falcon) 48 hours. Luminescence is detected using the Promega Dual-Glo luciferase assay system, according to the manufacturer's protocol and read using Tecan Infinite M200 microplate reader using 100 ms integration time.

c-Myc regulated genes = test: RT-PCRQ of c-Myc regulated transcripts; format: cell-based, human; details: A431, 100 nM overnight (16 hours)
Protocol: 400000 A431 cells were seeded in each well in a 6 well plate (Falcon) 24 hours before incubation with 100 nM tPE-H1 for 16 hours at 37° C. Total RNA was isolated using the RNeasy Mini Kit (Qiagen, Ref. no 74106) as described by manufacturer's protocol.
10 μg total RNA was reversed transcribed using SuperScript III First-Strand Synthesis System for RT-PCR (Invitrogen, Cat. no. 18080051) as described by manufacturer's protocol.
The relative expression of mRNAs of c-Myc regulated genes identified in RT^2 Profiler™ PCR Array Human MYC Targets (Qiagen, Cat. no. PAHS-177Z) was determined by real-time quantitative RT-PCR. Briefly, a PCR component mix containing cDNA, RT^2 SYBR Green Mastermix (Qiagen, Cat. no. 330523) and RNase-free water is prepared. 25 μl of the PCR reaction was added to each well in one array plate and subjected to a qPCR program using the ABI 7500. PCR cycling conditions comprised of an initial denaturation step at 95° C. for 10 minutes followed by an amplification program for 40 cycles of 15 seconds at 95° C., and 60 seconds at 60° C. with fluorescence acquisition at the end of each extension. The relative expression of each gene between treated and untreated samples is calculated using the comparative ΔΔCT method, using the mock treated sample as calibrator and housekeeping gene HPRT as internal control.

A431 cells [2] = test: Cell fractionation, subcellular location; format: cell-based; details: for subcellular location after cell fractionation: 200 nM, 1 hour, A431; for time to reach the nucleus: after incubation
Protocol: Cells were seeded at the desired densities in six-well dishes (Thermo Fisher Scientific) and incubated at 37° C., 10% CO2 for 16 hours. Cells were treated for 1 hour with mock (untreated cells) or tPE-H1 200 nM before fractionation with Cell Surface Protein Isolation Kit (#89881, Thermo Fisher Scientific) according to the manufacturer's protocol. In addition, cytosolic fraction is centrifuge at 15 000 g for 15 minutes to remove membrane contaminants. Samples are denaturated in Laemmli blue 2X and heat-denaturated for 5 minutes at 95° C. Samples are loaded on SDS-PAGE followed by western blot.
(§2) It is of note that the experiments outlined above were also performed using the tPE-Omomcy fusion protein, results of which are shown in FIG. 2B, and FIGS. 12 to 15. The concentration of the tPE-Omomyc fusion protein is as stated on the x-axis in FIGS. 12 and 14; 200 nM for FIG. 2B; and 10 nM for FIGS. 13 and 15.

A431 cells [3] = test: A431 cell proliferation (IncuCyte live imaging); format: cell-based
Protocol: (§3) Cells were seeded at 10 to 20% confluency. 24 hours later, the cells were incubated with different doses of tPE-H1 at 37° C., 10% CO2 for 14 days. Live imaging was performed using IncuCyte ZOOM® Live-Cell Analysis System. Bright field Images were taken every 6 hours. Images were analysed using IncuCyte ZOOM® Live-Cell Analysis software.

c-Myc/Max complex = molecular target: T1, c-Myc/Max complex (Homo sapiens, UniProt P01106); test: c-Myc co-immunoprecipitation with Max; format: cell-based; details: 200 nM, 1 hour, A431
T1 construct: endogenous in cells; host or cells: A431
Protocol: A431 cells seeded at the desired densities in six-well dishes (Thermo Fisher Scientific) and incubated at 37° C., 10% CO2 for 16 hours. Cells were treated for 1 hour with mock, tPE or tPE-H1 200 nM before lysis in RIPA buffer for 20 minutes at 4° C. and centrifugation for 20 minutes at 15 000 g at 4° C. Soluble fractions were added with c-myc antibody (#32, Abcam) on orbital wheel for 4 hours at 4° C. Protein A Sepharose (GE Healthcare) was added and incubated overnight on orbital wheel at 4° C. After three washes, proteins were eluted in one volume of Laemmli blue 2X and heat-denaturated for 5 minutes at 95° C. Samples were run on SDS-PAGE before western blot. Membrane are blocked in milk and incubated with anti Max (#199489, Abcam) and anti c-Myc (#32072, Abcam).

[4] = tested on: Hepatocarcinoma HepG2 cells; test: HepG2 cell proliferation (IncuCyte live imaging); format: cell-based; details: for concentration above which no proliferation / absence of cell growth: HepG2, 2 weeks
Protocol: as §3, §2

[5] = tested on: HeLa, A431, MG63, MDA-MD231, and HCT116; test: Sensitivity of other cell lines (data not shown); format: cell-based
[6] = tested on: Hepatocarcinoma HepG2 cells; test: DRAQ7 cell mortality assay; format: cell-based; details: 24 hours
Protocol: 25000 HepG2 cells were seeded per well in a 96-well plate. After incubation at 37° C. for 24 hours, DRAQ7 dye was prepared with 100 nM tPE-H1 at 500 times dilution
Cell mortality was tracked by acquiring nine fields of brightfield and far-red images at 20× magnification every 4 hours using the Operetta machine (Perkin-Elmer) for 3 to 5 days. The machine kept the plate incubated at 37° C. with 8% CO2.
as §2

[7] = 6 hours, read-out: EC50 on c-Myc transcriptional activity, CPP fused to H1
[8] = 6 hours, read-out: EC50 on c-Myc transcriptional activity (c-Myc-dependent luciferase activity)
[9] = tPE-H1 50 nM, A431 E-Box luciferase
[10] = tPE-Omomyc 10 nM, A431 E-Box luciferase

T1 sequence (P01106 whole entry, one chain of several): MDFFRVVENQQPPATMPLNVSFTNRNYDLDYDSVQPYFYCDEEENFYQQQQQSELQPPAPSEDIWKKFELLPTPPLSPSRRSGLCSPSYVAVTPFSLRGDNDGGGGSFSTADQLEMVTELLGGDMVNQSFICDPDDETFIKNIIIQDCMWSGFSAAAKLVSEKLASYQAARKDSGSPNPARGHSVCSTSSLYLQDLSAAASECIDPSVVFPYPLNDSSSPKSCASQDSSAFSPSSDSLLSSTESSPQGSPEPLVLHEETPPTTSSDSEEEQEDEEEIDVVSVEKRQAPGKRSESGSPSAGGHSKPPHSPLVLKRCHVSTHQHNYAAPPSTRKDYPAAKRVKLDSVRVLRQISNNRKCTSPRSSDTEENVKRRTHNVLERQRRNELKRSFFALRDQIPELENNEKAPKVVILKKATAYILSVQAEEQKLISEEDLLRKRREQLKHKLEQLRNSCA

cell targeting peptide Antenapedia fused to H1: RQIKIWFQNRRMKWKK NELKRAFAALRDQI [Int-H1, reference compound]
EC50 (c-Myc; 6 hours, listed as Antenapedia, read-out: EC50 on c-Myc transcriptional activity, CPP fused to H1): 200 µM
EC50 (c-Myc; 6 hours, listed as int-H1, read-out: EC50 on c-Myc transcriptional activity, CPP fused to H1): ~200 µM

cell targeting peptide Cadherin fused to H1: LLIILLRRRIRKQAHAHSK NELKRAFAALRDQI [CAD-H1, reference compound]
EC50 (c-Myc; 6 hours, listed as Cadherin, read-out: EC50 on c-Myc transcriptional activity, CPP fused to H1): 75 µM
EC50 (c-Myc; [7]): ~75 µM

cell targeting peptide TAT fused to H1: GRKKRRQRRRPPQ NELKRAFAALRDQI [Tat-H1, reference compound]
EC50 (c-Myc; 6 hours, listed as TAT, read-out: EC50 on c-Myc transcriptional activity, CPP fused to H1): 500 µM
EC50 (c-Myc; [7]): ~500 µM

tPE-H1: fusion protein: PE domains Ia and II genetically fused to mutated H1 peptide (S6A, F8A), SEQ ID NO: 14
effect on Renilla luciferase (CMV promoter control) [1]: not affected
mRNA amount of transcripts regulated by c-Myc (c-Myc regulated genes): decrease of numerous upregulated genes under tPE-H1 treatment and an increase of numerous down regulated genes
more efficient than H1 fused to cell penetrating peptides (TAT, CAD, int) (c-Myc): at least 1000 times
decrease in Myc reporter activity (c-Myc; 50 nM): > 90%
effect on E-Box luciferase (c-Myc; 50 nM, 6 hours, A431): decrease of the luciferase
EC50 (c-Myc; [8]): 0.025 µM
time of peak activity / maximal inhibition of luciferase (c-Myc; [9]): 8 h
time over which maximal inhibition was stable (c-Myc; [9]): more than 24 hours
subcellular location after cell fractionation (A431 cells [2]): location in the nucleus
time to reach the nucleus (A431 cells [2]): less than 1 hour
cell proliferation (A431 cells [3]; A431, 50 nM and 100 nM, over 2 weeks): slower cell proliferation
cell proliferation, dose response (A431 cells [3]; A431, 50 to 400 nM): dose dependent decrease in cell proliferation
concentration above which no proliferation / total absence of growth (A431 cells [3]; A431, over 2 weeks): above 200 nM
effect on c-Myc/Max interaction (co-IP of Max with c-Myc) (c-Myc/Max complex): disrupted the c-Myc/Max interaction
concentration sufficient to block HepG2 cell proliferation and induce cell death/apoptosis [4]: 100 nM
cell proliferation ([4]; HepG2, 10 nM and 25 nM, over 2 weeks): slower cell proliferation
concentration above which no proliferation / absence of cell growth [4]: above 50 nM
relative sensitivity of all cell lines tested, tPE-H1 versus tPE-Omomyc ([5]; all the cell lines tested): around 10 times
number of dead (DRAQ7 positive) cells ([6]; HepG2, 100 nM): cells death; also recorded: increase of the number of dead cells

tPE-Omomyc: fusion protein: PE domains Ia and II genetically fused to Omomyc peptide, SEQ ID NO: 15
EC50 (c-Myc; [8]): 0.005 µM
time of peak activity / maximal inhibition of luciferase (c-Myc; [10]): 16 h
time over which maximal inhibition is stable (c-Myc; [10]): more than 24 hours
subcellular location after cell fractionation (A431 cells [2]): located in nuclear fraction; also recorded: in the nuclear fraction
time to reach the nucleus (A431 cells [2]): ≤ 1 h
concentration sufficient to block HepG2 cell proliferation and induce cell death/apoptosis [4]: 10 nM
cell proliferation ([4]; HepG2, 2.5 nM and 5 nM, 2 weeks): slower cell proliferation
cell proliferation, different doses ([4]; HepG2, 1 to 10 nM): decrease in cell proliferation
concentration above which no proliferation / absence of cell growth [4]: above 10 nM
concentration to which cell lines were sensitive ([5]; HeLa, A431, MG63, MDA-MD231, HCT116, data not shown): about 10 nM
number of dead (DRAQ7 positive) cells ([6]; HepG2, 10 nM): significant increase; also recorded: increase of the number of dead cells
